Measurements as given in ChEMBL document CHEMBL3632551, “Kynurenine Monooxygenase (KMO) Inhibitors for the Treatment of Acute Pancreatitis and Neurodegenerative Disorders” (ACS Med Chem Lett, 2015).

Target: Kynurenine 3-monooxygenase (Homo sapiens, UniProt O15229)
Experiment: Inhibition of kynurenine monooxygenase (unknown origin) by MS rapidfire assay

Sequence of Kynurenine 3-monooxygenase (O15229 whole entry): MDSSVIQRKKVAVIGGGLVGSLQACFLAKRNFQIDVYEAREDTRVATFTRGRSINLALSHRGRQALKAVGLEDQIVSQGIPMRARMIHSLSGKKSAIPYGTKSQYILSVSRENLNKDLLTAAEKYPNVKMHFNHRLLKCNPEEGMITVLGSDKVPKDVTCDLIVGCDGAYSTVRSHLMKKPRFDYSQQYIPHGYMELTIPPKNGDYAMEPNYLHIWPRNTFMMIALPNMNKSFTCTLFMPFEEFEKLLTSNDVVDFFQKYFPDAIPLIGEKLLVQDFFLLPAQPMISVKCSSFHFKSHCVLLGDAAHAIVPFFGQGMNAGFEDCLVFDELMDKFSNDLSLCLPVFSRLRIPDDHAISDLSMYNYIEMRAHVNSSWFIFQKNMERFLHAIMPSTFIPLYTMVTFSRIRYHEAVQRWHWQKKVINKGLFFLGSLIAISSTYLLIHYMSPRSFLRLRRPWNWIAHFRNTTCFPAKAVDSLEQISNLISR

Row | IC50 | SMILES
1 | < 794 nM | Cn1ccnc1COc1cc2oc(=O)n(CCC(=O)O)c2cc1Cl
2 | < 794 nM | C[C@@H](Oc1cc2oc(=O)n(CCC(=O)O)c2cc1Cl)c1cccnn1
